According to ChEMBL document CHEMBL5543155, “Design, Synthesis, and Biological Evaluation of β-Trifluoroethoxydimethyl Selenides as Potent Antiosteoporosis Agents” (J Med Chem, 2024):
pIC50, pKd: −log10 of the molar value. Calls of active or inactive are those of the source. The calls are words filed in the database; no cut-off is given here.

Legend:
[1] = molecular target: T1, Tumor necrosis factor ligand superfamily member 11 (Mus musculus, UniProt O35235); assay: Binding affinity to mouse RANKL assessed as dissociation constant by SPR analysis
T1 sequence (O35235 whole entry): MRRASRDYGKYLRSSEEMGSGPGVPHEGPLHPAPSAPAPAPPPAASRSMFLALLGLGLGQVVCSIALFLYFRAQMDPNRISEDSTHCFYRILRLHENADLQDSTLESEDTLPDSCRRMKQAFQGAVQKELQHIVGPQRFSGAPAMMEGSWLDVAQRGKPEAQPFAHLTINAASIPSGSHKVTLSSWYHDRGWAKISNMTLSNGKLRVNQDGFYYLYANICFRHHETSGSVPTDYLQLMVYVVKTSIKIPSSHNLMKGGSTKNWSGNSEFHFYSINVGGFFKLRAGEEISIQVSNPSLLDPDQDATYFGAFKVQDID

RAW264.7 [2] = assay: Inhibition of RANKL-induced osteoclast differentiation in mouse RAW264.7 cells at 5 uM incubated for 4 days with media replacement for every 2 days by TRAP-staining based light microscopic analysis; type: functional, cell-based; settings: time 4.0 day
[3] = Toxicity in OVX osteoporotic C57BL/6 mouse assessed as effect on size and surface gloss of lung at 10 mg/kg, ip administered every other day for 8 weeks by H and E staining based analysis; type: organism-based; settings: in vivo, 1344 h
MC3T3-E1 [4] = assay: Cytotoxicity against mouse MC3T3-e1 cells assessed as reduction in cell viability at 2.5 to 10 uM measured after 7 days by MTT assay; type: toxicity, cell-based; settings: mc3t3-e1, 168 h, dose 2.5-10 µM, time 7 day
Mus musculus [5] = assay: Anti-osteoporosis activity in ovariectomized C57BL/6 mouse assessed as reduction in bone loss by measuring increase in bone volume/total bone volume (BV/TV) at 10 mg/kg, ip administered every other day for 8 weeks by micro-CT analysis; type: functional, organism-based
BMMC [6] = assay: Anti-osteoclastogenesis activity in M-CSF/RANKL-induced C57BL/6 mouse BMMC cells assessed as downregulation of DC-STAMP gene expression incubated for 5 days by qRT-PCR analysis; type: functional, cell-based; settings: dose 0-10 µM, time 5.0 day
MC3T3-E1 [7] = assay: Induction of osteoblast differentiation in mouse MC3T3-E1 cells assessed as bone formation by measuring increase in calcium deposition measured after 21 days by Alizarin red S staining based inverted microscopic analysis; type: functional, cell-based; settings: dose 2.5-10 µM, time 21.0 day
Mus musculus [8] = assay: Anti-osteoporosis activity in ovariectomized C57BL/6 mouse assessed as reduction in bone loss by measuring decrease in trabecular spacing at 10 mg/kg, ip administered every other day for 8 weeks by micro-CT analysis; type: functional, organism-based
[9] = molecular target: T2, Tumor necrosis factor ligand superfamily member 11 (Mus musculus) (UniProt O35235); assay: Binding affinity to mouse RANKL assessed as increase in resonance units measured upto 240 mins by SPR analysis; settings: dose 15.63-500 µM
T2 sequence (whole entry): T1 sequence (O35235 whole entry)

BMMC [10] = assay: Anti-osteoclastogenesis activity in M-CSF/RANKL-induced C57BL/6 mouse BMMC cells assessed as inhibition of osteoclasts formation incubated for 6 days with media replacement for every 2 days by TRAP-staining based light microscopic analysis; type: functional, cell-based
MC3T3-E1 [11] = assay: Induction of osteoblast differentiation in mouse MC3T3-E1 cells assessed as increase in ALP activity measured after 7 days by ALP staining based inverted microscopic analysis; type: functional, cell-based; settings: dose 2.5-10 µM, time 7.0 day
RAW264.7 [12] = assay: Cytotoxicity against mouse RAW264.7 cells assessed as cell destruction at 5 uM incubated for 48 hrs by MTT assay; type: toxicity, cell-based; settings: raw264.7, 48 h
[13] = molecular target: c-Jun N-terminal kinase (Mus musculus) (UniProt Q91Y86+Q9WTU6+Q61831); assay: Inhibition of JNK phosphorylation in RANKL-induced C57BL/6 mouse BMMC cells at 5 uM pretreated for 6 hrs followed by RANKL stimulation and measured upto 60 mins by Western blot analysis; type: cell-based; settings: time <= 7.0 hrs
c-Jun N-terminal kinase (Mus musculus), sequence (Q61831 whole entry, looked up): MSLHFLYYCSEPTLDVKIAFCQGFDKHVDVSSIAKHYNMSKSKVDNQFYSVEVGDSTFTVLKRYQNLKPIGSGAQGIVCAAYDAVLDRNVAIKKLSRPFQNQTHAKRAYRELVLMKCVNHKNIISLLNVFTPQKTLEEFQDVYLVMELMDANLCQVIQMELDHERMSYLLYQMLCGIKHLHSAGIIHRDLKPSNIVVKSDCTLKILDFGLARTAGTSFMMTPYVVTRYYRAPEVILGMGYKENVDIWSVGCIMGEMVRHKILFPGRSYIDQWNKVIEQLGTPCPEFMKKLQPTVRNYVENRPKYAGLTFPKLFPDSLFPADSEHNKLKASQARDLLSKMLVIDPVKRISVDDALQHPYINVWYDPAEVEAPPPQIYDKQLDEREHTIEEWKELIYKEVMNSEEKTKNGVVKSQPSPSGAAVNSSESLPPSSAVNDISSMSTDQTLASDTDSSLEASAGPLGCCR
c-Jun N-terminal kinase (Mus musculus), sequence (Q91Y86 whole entry, looked up): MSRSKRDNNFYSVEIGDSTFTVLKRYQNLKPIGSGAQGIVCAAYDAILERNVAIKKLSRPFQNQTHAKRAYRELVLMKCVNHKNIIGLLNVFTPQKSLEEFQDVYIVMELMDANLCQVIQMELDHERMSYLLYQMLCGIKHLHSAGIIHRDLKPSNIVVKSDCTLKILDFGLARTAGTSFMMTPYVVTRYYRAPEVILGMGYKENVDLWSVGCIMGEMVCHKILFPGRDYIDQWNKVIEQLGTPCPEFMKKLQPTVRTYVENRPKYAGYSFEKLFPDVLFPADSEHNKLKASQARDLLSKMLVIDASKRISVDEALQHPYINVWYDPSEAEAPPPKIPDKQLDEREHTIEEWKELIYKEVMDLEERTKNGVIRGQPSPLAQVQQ
c-Jun N-terminal kinase (Mus musculus), sequence (Q9WTU6 whole entry, looked up): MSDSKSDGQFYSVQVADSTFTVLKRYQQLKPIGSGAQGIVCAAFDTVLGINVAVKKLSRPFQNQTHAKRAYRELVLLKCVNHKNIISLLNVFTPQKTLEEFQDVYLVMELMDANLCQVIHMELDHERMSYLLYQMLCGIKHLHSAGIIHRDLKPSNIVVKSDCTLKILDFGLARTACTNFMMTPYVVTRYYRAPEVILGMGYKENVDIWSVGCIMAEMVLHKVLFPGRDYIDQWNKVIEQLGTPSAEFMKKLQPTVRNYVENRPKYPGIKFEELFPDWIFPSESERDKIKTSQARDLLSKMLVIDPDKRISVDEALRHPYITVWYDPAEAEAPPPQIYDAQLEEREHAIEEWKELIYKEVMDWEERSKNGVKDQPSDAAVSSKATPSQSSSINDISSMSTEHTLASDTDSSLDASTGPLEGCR

BMMC [14] = assay: Inhibition of ERK phosphorylation in RANKL-induced C57BL/6 mouse BMMC cells at 5 uM pretreated for 6 hrs followed by RANKL stimulation and measured upto 60 mins by Western blot analysis; type: cell-based; settings: time <= 7.0 hrs
[15] = Toxicity in OVX osteoporotic C57BL/6 mouse assessed as effect on size and surface gloss of heart at 10 mg/kg, ip administered every other day for 8 weeks by H and E staining based analysis; type: organism-based; settings: in vivo, 1344 h
Mus musculus [16] = assay: Anti-osteoporosis activity in ovariectomized C57BL/6 mouse assessed as reduction in bone loss at 10 mg/kg, ip administered every other day for 8 weeks by H and E staining based analysis; type: functional, organism-based
[17] = molecular target: Transcription factor p65 (Mus musculus) (UniProt Q04207); assay: Inhibition of p65 phosphorylation in RANKL-induced C57BL/6 mouse BMMC cells at 5 uM pretreated for 6 hrs followed by RANKL stimulation and measured upto 60 mins by Western blot analysis; type: cell-based; settings: time <= 7.0 hrs
Transcription factor p65 (Mus musculus), sequence (Q04207 whole entry): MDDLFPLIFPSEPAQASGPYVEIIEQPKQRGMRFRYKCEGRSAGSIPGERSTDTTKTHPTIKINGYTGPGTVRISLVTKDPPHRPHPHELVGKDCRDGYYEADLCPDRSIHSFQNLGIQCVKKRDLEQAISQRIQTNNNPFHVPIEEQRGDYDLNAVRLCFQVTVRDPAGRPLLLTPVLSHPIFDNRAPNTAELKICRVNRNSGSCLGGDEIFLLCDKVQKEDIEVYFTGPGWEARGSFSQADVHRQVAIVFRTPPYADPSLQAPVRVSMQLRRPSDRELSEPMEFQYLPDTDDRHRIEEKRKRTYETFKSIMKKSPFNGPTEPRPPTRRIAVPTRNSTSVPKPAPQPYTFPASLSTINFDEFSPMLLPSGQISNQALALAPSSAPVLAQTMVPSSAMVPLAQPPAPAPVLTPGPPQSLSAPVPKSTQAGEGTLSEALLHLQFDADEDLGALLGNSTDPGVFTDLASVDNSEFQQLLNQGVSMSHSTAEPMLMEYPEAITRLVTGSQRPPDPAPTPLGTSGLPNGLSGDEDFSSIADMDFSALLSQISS

[18] = Toxicity in OVX osteoporotic C57BL/6 mouse assessed as body weight loss at 10 mg/kg, ip administered every other day for 8 weeks and measured every week; type: organism-based; settings: in vivo, 1344 h
Mus musculus [19] = assay: Anti-osteoporosis activity in ovariectomized C57BL/6 mouse assessed as reduction in bone loss by measuring increase in trabecular thickness at 10 mg/kg, ip administered every other day for 8 weeks by micro-CT analysis; type: functional, organism-based

inhibition [13]: Active | inhibition [17]: Active
Compound: CC(C)(OCC(F)(F)F)C([Se]c1ccccc1)C(=O)Nc1ccncc1 (stereo not given)
pKd [1]: 3.57 | inhibition (RAW264.7 [2]): Active | Activity [3]: Non-Toxic | Activity (MC3T3-E1 [4]): Non-Toxic | Activity (Mus musculus [5]): Active | Activity (BMMC [6]): Dose-Dependent Effect | Activity (MC3T3-E1 [7]): Dose-Dependent Effect | Activity (Mus musculus [8]): Active | Activity [9]: Active | pIC50 (BMMC [10]; C57BL/6, BMMC): 5.62 | Activity (BMMC [10]; dose 0-10 µM, time 6.0 day): Dose-Dependent Effect | Activity (MC3T3-E1 [11]): Dose-Dependent Effect | Activity (RAW264.7 [12]): Non-Toxic | inhibition (BMMC [14]): Active | Activity [15]: Non-Toxic | Activity (Mus musculus [16]): Active | Activity [18]: Non-Toxic | Activity (Mus musculus [19]): Active
